Laboratory results reported in patent US20260124213A1, “STAPHYLOCOCCUS AUREUS PBP4 INHIBITORS AND METHOD OF USE” (UNIVERSITY OF ROCHESTER, priority 2022, published 2026).

Experiments:
S. aureus strain CRB = assay: microbe, parasite or virus in culture; format: cell-based, Staphylococcus aureus; details: CRB
Description: Fractional Inhibitory Concentration Index (FICI). Fractional inhibitory testing was performed in checkerboard format to determine whether putative PBP4 inhibitors potentiated the antimicrobial effects of β-lactams toward S. aureus strains USA300 and CRB, as previously described (Chojacnki, et al. Journal of Antimicrobial Chemotherapy, 2003, 52, 1). To do so, in triplicate 10^5 CFU of each strain (10 μL) was added to individual wells of a microtiter plate containing 90 μL MH media. […] Plates were incubated at 37° C. for 16-20 hour and the lowest concentration of each test agent that inhibited bacterial growth alone or in combination was determined by the naked eye. The fractional inhibitory concentration (FIC) index was calculated using the formula: FIC of A (MIC of drug A in combination/MIC of drug A alone)+FIC B ([…]/MIC of drug B alone). A synergistic interaction was defined as a FICI value of less than 0.5, an additive interaction was defined as a FICI value between 0.5 and 1.0, an indifferent interaction was defined as a FICI value between 1.0 and 4.0, and an antagonistic interaction was defined as a FICI value of more than 4.0.

HEPG2 cells = assay: MTT cell viability / mammalian cytotoxicity; format: cell-based, human; details: 100 μM; HEPG2 approx. 2.5 × 10^5 cells/mL; Ex. 3 series
Description: Eukaryotic Toxicity Testing. Two rounds of eukaryotic toxicity testing were performed. Initially hits of interest were evaluated for antifungal activity in high throughput manner. To do so, 10^5 CFU of Saccharomyces cerevisiae YSB1001 cells (10 μL) were inoculated into individual wells of a microtiter plate containing yeast peptone dextrose media (88 μL) and 50 μM of each hit (2 μL). […] More extensive mammalian cytotoxicity testing was performed on the indicated highest priority hits of interest following International Organization for Standardization guidelines. Briefly, human liver epithelial cells (HEPG2) were cultured in Dulbecco's modified Eagle medium (DMEM; Fisher Scientific®) supplemented with 10% heat inactivated fetal bovine serum (FBS; Corning Life Sciences, Corning, NY) and 1% penicillin and streptomycin. Cells were incubated at 37° C. with 5% CO2 in Nunc™ tissue culture flasks (Roskilde, Denmark) until reaching 70% confluency. Cells were removed with 0.25% trypsin (Fisher Scientific®), resuspended in fresh medium, and used to seed approximately 2.5×10^5 mL^−1 cells into individual wells of a 96 well tissue culture microplate (Nunc™) containing 200 μL of fresh medium, and incubated for 24 hours. […] Mixtures were incubated for 20-24 h at 37° C. with 5% CO2, the media was removed and replaced with 100 μL fresh media and 10 μL of 12 mM (3-(4,5-dimethylthiazol-2-yl)-2,5-diphenyltetrazolium bromide (MTT) reagent (Cyquant™ Cell Viability kit; Invitrogen™, Carlsbad, CA) was added to each well. Cells were incubated at 37° C. with 5% CO2 for 2-4 hour, 85 μL of media was removed and the remainder was mixed with 50 μL DMSO and incubated for an additional 10 minutes at 37° C. in the dark. Using a SpectraMax® M5 microplate reader, cell viability was recorded as absorbance at OD540 nm. All compounds were tested in triplicate and cell viability was expressed as a percent viability of treated cells in comparison to mock treated cells. […]

Q: How did the “Cmpd (putative PBP4 inhibitor) MIC, Alone” value (S. aureus strain CRB) turn out when `O=C(Nc1ccc2[nH]c(-c3cccs3)nc2c1)c1ccco1` [Compound 1 (7729837)] was run?
A: The value was 200 µM.

Q: And the “Fold-decrease in ceftobiprole resistance in combination” value (S. aureus strain CRB)?
A: The value was 2.

Q: And the “Cmpd concentration, Combination” value (S. aureus strain CRB; with ceftobiprole)?
A: The value was 50 µM.

Q: And the “BPR (ceftobiprole) MIC, Combination” value (S. aureus strain CRB; with putative PBP4 inhibitor)?
A: Its value is 64 µg/mL.

Q: What about the “Toxicity with HEPG2 Cells (cell viability)” value (HEPG2 cells) of the same compound?
A: Its value is 95±16.8%.
